Data: patent publication US10807986B2, “Fused pyrimidine compound or salt thereof” (TAIHO PHARMACEUTICAL CO., LTD., priority 2016, dated 2020)
Where two headings read alike, the source gives them in different places.

Assays:
[1] = test system: TT cells (human thyroid cancer cell line with RET activating mutation); experiment: In vivo antitumor effect, mice subcutaneously implanted with TT cells; set-up: species or system BALB/cA Jcl-nu/nu male mice
[2] = mouse, microsomes, 0.5 h, 1 μM
[3] = Evaluation of stability in liver microsome; conditions: mouse liver microsome 0.25 mg/mL, test compound 1 μM, 37° C., 30 minutes
[4] = 100 mg/kg/day oral for 14 days, day 15, Table 54

SMILES	Remaining (%) [3] [%]	further results
COCc1ccc(NC(=O)c2c(C#CCN3CCOCC3)n(C3(C)CC3)c3ncnc(N)c23)cc1 [Example 85, 4-amino-N-[4-(methoxymethyl)phenyl]-7-(1-methylcyclopropyl)-6-(3-morpholinoprop-1-yn-1-yl)-7H-pyrrolo[2,3-d]pyrimidine-5-carboxamide]	–	T/C (%) [1, 4]: 23%; TV (mm^3) Day 15 Mean ± SE [1, 4]: 139.42 mm^3; RTV Day 15 Mean ± SE ([1]; 100 mg/kg/day oral for 14 days, day 15 relative to day 0, Table 54): 0.87; TV (mm^3) Day 0 Mean ± SE ([1]; 100 mg/kg/day oral, grouping day (day 0), Table 54): 169.45 mm^3
C/C=C/c1ccc(NC(=O)c2c(OCC)n(C3(C)CC3)c3ncnc(N)c23)cc1 [Example 117, (E)-4-amino-6-ethoxy-7-(1-methylcyclopropyl)-N-(4-(prop-1-en-1-yl)phenyl)-7H-pyrrolo[2,3-d]pyrimidine-5-carboxamide]	–	Remaining (%) [2]: 53%
COCc1ccc(NC(=O)c2c(C3=CCOCC3)n(C3(C)CC3)c3ncnc(N)c23)cc1 [Example 203, 4-amino-6-(3,6-dihydro-2H-pyran-4-yl)-N-(4-(methoxymethyl)phenyl)-7-(1-methylcyclopropyl)-7H-pyrrolo[2,3-d]pyrimidine-5-carboxamide]	68	–
COCc1ccc(NC(=O)c2c(C(C)O)n(C3(C)CC3)c3ncnc(N)c23)cc1 (centres unmarked) [Example 204, 4-amino-6-(1-hydroxyethyl)-N-(4-(methoxymethyl)phenyl)-7-(1-methylcyclopropyl)-7H-pyrrolo[2,3-d]pyrimidine-5-carboxamide]	83	–
CCc1c(C(=O)Nc2ccc(COC)cc2)c2c(N)ncnc2n1C1(C)CC1 [Example 207, 4-amino-6-ethyl-N-(4-(methoxymethyl)phenyl)-7-(1-methylcyclopropyl)-7H-pyrrolo[2,3-d]pyrimidine-5-carboxamide]	72	–

Now from value to molecule, other results behind:

Remaining (%) [3] [%]	SMILES	further results
80	COCc1ccc(NC(=O)c2c(C#CCC3CCCCC3)n(C3(C)CC3)c3ncnc(N)c23)cc1 [Example 199, 4-amino-6-(3-cyclohexylprop-1-yn-1-yl)-N-(4-(methoxymethyl)phenyl)-7-(1-methylcyclopropyl)-7H-pyrrolo[2,3-d]pyrimidine-5-carboxamide]	–
58	COCc1ccc(NC(=O)c2c(C#CC3CCOCC3)n(C3(C)CC3)c3ncnc(N)c23)cc1F [Example 205, 4-amino-N-(3-fluoro-4-(methoxymethyl)phenyl)-7-(1-methylcyclopropyl)-6-((tetrahydro-2H-pyran-4-yl)ethynyl)-7H-pyrrolo[2,3-d]pyrimidine-5-carboxamide]	–
77	COCc1ccc(NC(=O)c2c(C#CCN3CCOCC3)n(C3(C)CC3)c3ncnc(N)c23)cc1F [Example 206, 4-amino-N-(3-fluoro-4-(methoxymethyl)phenyl)-7-(1-methylcyclopropyl)-6-(3-morpholinoprop-1-yn-1-yl)-7H-pyrrolo[2,3-d]pyrimidine-5-carboxamide]	–
